The NIST ThermoML archive (doi:10.1021/je060353z)

Assay: xn = mol fraction of the nth substance listed
Conditions: 101 kPa, Liquid

Clc1ccccc1 [chlorobenzene] + CCCCCCCCCCO
Conditions | mass density [kg/m3] | speed of sound [m/s] | viscosity [mPa·s]
298.15 K, x1 = 0.1664 | 852.913 | 1362.6 | 7.762
298.15 K, x1 = 0.322 | 881.587 | 1344.4 | 5.123
298.15 K, x1 = 0.4609 | 911.692 | 1327 | 3.484
298.15 K, x1 = 0.5731 | 939.879 | 1311.7 | 2.539
298.15 K, x1 = 0.6619 | 965.236 | 1299.5 | 1.967
298.15 K, x1 = 0.7456 | 992.108 | 1288.5 | 1.517
298.15 K, x1 = 0.8174 | 1017.95 | 1280.1 | 1.243
298.15 K, x1 = 0.8857 | 1045.67 | 1273.3 | 1.017
298.15 K, x1 = 0.9426 | 1071.48 | 1269.5 | 0.865
298.15 K, x1 = 1 | 1100.67 | 1268 | 0.757
303.15 K, x1 = 0.1664 | 848.821 | 1343.9 | 6.542
303.15 K, x1 = 0.322 | 877.329 | 1325 | 4.407
303.15 K, x1 = 0.4609 | 907.247 | 1307.2 | 3.058
303.15 K, x1 = 0.5731 | 935.236 | 1292.4 | 2.262
303.15 K, x1 = 0.6619 | 960.447 | 1280.9 | 1.771
303.15 K, x1 = 0.7456 | 987.138 | 1270.5 | 1.388
303.15 K, x1 = 0.8174 | 1012.83 | 1262.6 | 1.147
303.15 K, x1 = 0.8857 | 1040.32 | 1256.1 | 0.949
303.15 K, x1 = 0.9426 | 1065.89 | 1252.2 | 0.808
303.15 K, x1 = 1 | 1095.1 | 1249.4 | 0.714
308.15 K, x1 = 0.1664 | 845.166 | 1326 | 5.554
308.15 K, x1 = 0.322 | 873.388 | 1306.4 | 3.814
308.15 K, x1 = 0.4609 | 903.044 | 1288.1 | 2.695
308.15 K, x1 = 0.5731 | 930.8 | 1272.9 | 2.021
308.15 K, x1 = 0.6619 | 955.749 | 1260.8 | 1.597
308.15 K, x1 = 0.7456 | 982.146 | 1249.5 | 1.273
308.15 K, x1 = 0.8174 | 1007.56 | 1240.8 | 1.045
308.15 K, x1 = 0.8857 | 1034.75 | 1234.6 | 0.868
308.15 K, x1 = 0.9426 | 1060.08 | 1231 | 0.756
308.15 K, x1 = 1 | 1089.08 | 1230.9 | 0.677
313.15 K, x1 = 0.1664 | 841.509 | 1308.6 | 4.751
313.15 K, x1 = 0.322 | 869.536 | 1288.1 | 3.323
313.15 K, x1 = 0.4609 | 898.972 | 1269.1 | 2.388
313.15 K, x1 = 0.5731 | 926.509 | 1253.3 | 1.816
313.15 K, x1 = 0.6619 | 951.271 | 1241.1 | 1.454
313.15 K, x1 = 0.7456 | 977.488 | 1230.1 | 1.156
313.15 K, x1 = 0.8174 | 1002.68 | 1222.1 | 0.968
313.15 K, x1 = 0.8857 | 1029.64 | 1216.5 | 0.809
313.15 K, x1 = 0.9426 | 1054.84 | 1213.4 | 0.702
313.15 K, x1 = 1 | 1083.66 | 1212.6 | 0.617

Clc1ccccc1 [chlorobenzene] + CCCCCCCCCO
x1 = 1
Conditions | mass density [kg/m3] | speed of sound [m/s] | viscosity [mPa·s]
298.15 K | 1100.67 | 1268 | 0.757
303.15 K | 1095.1 | 1249.4 | 0.714
308.15 K | 1089.08 | 1230.9 | 0.677
313.15 K | 1083.66 | 1212.6 | 0.617

Clc1ccccc1 [chlorobenzene] + CCCCCCCCO
Conditions | mass density [kg/m3] | speed of sound [m/s] | viscosity [mPa·s]
298.15 K, x1 = 0.1423 | 848.715 | 1334.1 | 5.448
298.15 K, x1 = 0.2807 | 877.644 | 1319.1 | 3.87
298.15 K, x1 = 0.4121 | 908.104 | 1303.7 | 2.788
298.15 K, x1 = 0.5237 | 936.698 | 1291.1 | 2.116
298.15 K, x1 = 0.6158 | 962.489 | 1281.2 | 1.692
298.15 K, x1 = 0.7073 | 990.466 | 1272.7 | 1.363
298.15 K, x1 = 0.7885 | 1017.46 | 1267 | 1.132
298.15 K, x1 = 0.8662 | 1045.68 | 1264 | 0.956
298.15 K, x1 = 0.9331 | 1072.02 | 1264 | 0.841
298.15 K, x1 = 1 | 1100.97 | 1268 | 0.757
303.15 K, x1 = 0.1423 | 844.912 | 1317.5 | 4.64
303.15 K, x1 = 0.2807 | 873.625 | 1303.4 | 3.352
303.15 K, x1 = 0.4121 | 903.886 | 1289.6 | 2.455
303.15 K, x1 = 0.5237 | 932.283 | 1277.8 | 1.89
303.15 K, x1 = 0.6158 | 957.91 | 1268.6 | 1.528
303.15 K, x1 = 0.7073 | 985.68 | 1260 | 1.243
303.15 K, x1 = 0.7885 | 1012.47 | 1253.4 | 1.04
303.15 K, x1 = 0.8662 | 1040.47 | 1248.7 | 0.885
303.15 K, x1 = 0.9331 | 1066.6 | 1247.5 | 0.782
303.15 K, x1 = 1 | 1095.1 | 1249.4 | 0.714
308.15 K, x1 = 0.1423 | 841.161 | 1302.6 | 3.981
308.15 K, x1 = 0.2807 | 869.616 | 1289.5 | 2.919
308.15 K, x1 = 0.4121 | 899.625 | 1276 | 2.174
308.15 K, x1 = 0.5237 | 927.793 | 1263.8 | 1.678
308.15 K, x1 = 0.6158 | 953.186 | 1254.6 | 1.366
308.15 K, x1 = 0.7073 | 980.694 | 1245.7 | 1.119
308.15 K, x1 = 0.7885 | 1007.21 | 1238.7 | 0.956
308.15 K, x1 = 0.8662 | 1034.92 | 1233.4 | 0.833
308.15 K, x1 = 0.9331 | 1060.82 | 1230.9 | 0.752
308.15 K, x1 = 1 | 1089.08 | 1230.9 | 0.677
313.15 K, x1 = 0.1423 | 836.375 | 1285.8 | 3.436
313.15 K, x1 = 0.2807 | 864.727 | 1273.2 | 2.562
313.15 K, x1 = 0.4121 | 894.659 | 1260.3 | 1.934
313.15 K, x1 = 0.5237 | 922.757 | 1248.9 | 1.528
313.15 K, x1 = 0.6158 | 948.078 | 1239.6 | 1.267
313.15 K, x1 = 0.7073 | 975.5 | 1230.7 | 1.037
313.15 K, x1 = 0.7885 | 1001.95 | 1223.5 | 0.891
313.15 K, x1 = 0.8662 | 1029.57 | 1217.8 | 0.76
313.15 K, x1 = 0.9331 | 1055.42 | 1214.3 | 0.681
313.15 K, x1 = 1 | 1083.66 | 1212.6 | 0.617
